Experimental data: patent US11352359B2, “PI3K protein kinase inhibitors” (Rhizen Pharmaceuticals SA, priority 2013, dated 2022)

What was measured:
[1] = target: PI3Kβ (Homo sapiens, UniProt P42338); assay: Fluorescent determination of PI3Kinase enzyme activity (HTRF), PI3Kβ; format: biochemical
Description: (§1) Fluorescent Determination of PI3Kinase Enzyme Activity
(§2) Phosphoinositide 3 kinases (PI3K) belong to a class of Lipid kinases that play a critical role in the regulation of several key cellular processes. The PI3K are capable of phosphorylating the 3-hydroxy position of phosphoinositols thereby generating second messengers involved in downstream signalling events. The homogenous time resolved fluorescence (HTRF) assay allows detection of 3,4,5-triphosphate (PIP3) formed as a result of phosphorylation of phosphotidylinositol 4,5-biphosphate (PIP2) by PI3K isoforms such as α, […], γ or δ.
(§3) PI3K isoform activity for α, β, γ or δ is to be determined using a PI3K human HTRF™ Assay Kit (Millipore, Billerica, Mass.) with modifications. All incubations were carried out at room temperature. Briefly, 0.5 μl of 40× inhibitor (in 100% DMSO) or 100% DMSO were added to each well of a 384-well black plate (Greiner Bio-One, Monroe, N.C.) containing 14.5 μl 1× reaction buffer/PIP2 (10 mM MgCl2, 5 mM DTT, 1.38 μM PIP2) mix with or without enzyme and incubated for 10 min. After the initial incubation, 5 μl/well of 400 μM ATP was added and incubated for an additional 30 minutes. Reaction was terminated by adding 5 μl/well stop solution (Millipore, Billerica, Mass.). Five microliters of detection mix (Millipore, Billerica, Mass.) were then added to each well and was incubated for 6-18 h in the dark. HRTF ratio was measured on a microplate reader (BMG Labtech, Germany) at an excitation wavelength of 337 nm and emission wavelengths of 665 and 620 nm with an integration time of 400 μsec. Data was analyzed using Graphpad Prism (Graphpad software; San Diego Calif.) for IC50 determination).

[2] = target: PI3Kα (Homo sapiens, UniProt P42336); assay: Fluorescent determination of PI3Kinase enzyme activity (HTRF), PI3Kα; format: biochemical
Description: as §1, §2, §3

[3] = target: PI3Kδ (Homo sapiens, UniProt O00329); assay: Fluorescent determination of PI3Kinase enzyme activity (HTRF), PI3Kδ; format: biochemical; details: for inhibition at 0.1 µM: 100 nM (underlined values: 300 nM)
Description: as §1, §2, §3

[4] = target: PI3Kγ (Homo sapiens, UniProt P48736); assay: Fluorescent determination of PI3Kinase enzyme activity (HTRF), PI3Kγ; format: biochemical; details: for inhibition at 0.1 µM: 100 nM (underlined values: 300 nM)
Description: as §1, §2, §3

PI3Kδ, sequence (O00329 whole entry): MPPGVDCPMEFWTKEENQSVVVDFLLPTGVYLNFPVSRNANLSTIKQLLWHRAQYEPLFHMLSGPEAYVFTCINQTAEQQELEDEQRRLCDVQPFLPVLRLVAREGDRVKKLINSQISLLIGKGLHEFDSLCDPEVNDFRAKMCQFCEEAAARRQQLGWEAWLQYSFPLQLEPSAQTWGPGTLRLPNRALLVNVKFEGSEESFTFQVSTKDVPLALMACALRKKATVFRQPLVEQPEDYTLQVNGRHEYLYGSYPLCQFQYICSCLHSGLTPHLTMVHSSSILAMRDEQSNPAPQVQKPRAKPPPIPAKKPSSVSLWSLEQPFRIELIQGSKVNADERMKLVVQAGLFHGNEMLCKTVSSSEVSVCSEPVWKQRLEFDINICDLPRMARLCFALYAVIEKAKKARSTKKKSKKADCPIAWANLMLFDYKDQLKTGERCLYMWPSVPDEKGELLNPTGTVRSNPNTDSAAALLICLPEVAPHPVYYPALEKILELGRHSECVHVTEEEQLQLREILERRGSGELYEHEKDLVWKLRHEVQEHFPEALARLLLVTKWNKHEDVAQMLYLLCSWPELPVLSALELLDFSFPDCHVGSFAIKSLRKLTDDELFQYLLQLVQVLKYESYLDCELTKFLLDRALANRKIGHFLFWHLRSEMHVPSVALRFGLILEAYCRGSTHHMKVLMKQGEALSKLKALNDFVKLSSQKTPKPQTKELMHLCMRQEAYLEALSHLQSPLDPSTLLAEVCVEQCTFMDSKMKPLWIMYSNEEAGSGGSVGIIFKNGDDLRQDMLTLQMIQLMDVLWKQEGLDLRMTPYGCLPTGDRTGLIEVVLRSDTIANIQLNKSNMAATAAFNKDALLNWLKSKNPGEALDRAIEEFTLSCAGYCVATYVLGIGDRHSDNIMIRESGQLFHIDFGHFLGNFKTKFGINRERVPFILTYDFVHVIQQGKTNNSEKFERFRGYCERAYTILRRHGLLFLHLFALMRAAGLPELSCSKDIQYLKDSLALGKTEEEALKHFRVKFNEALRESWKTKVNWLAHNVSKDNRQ
PI3Kδ, sequence (P27986 whole entry partner): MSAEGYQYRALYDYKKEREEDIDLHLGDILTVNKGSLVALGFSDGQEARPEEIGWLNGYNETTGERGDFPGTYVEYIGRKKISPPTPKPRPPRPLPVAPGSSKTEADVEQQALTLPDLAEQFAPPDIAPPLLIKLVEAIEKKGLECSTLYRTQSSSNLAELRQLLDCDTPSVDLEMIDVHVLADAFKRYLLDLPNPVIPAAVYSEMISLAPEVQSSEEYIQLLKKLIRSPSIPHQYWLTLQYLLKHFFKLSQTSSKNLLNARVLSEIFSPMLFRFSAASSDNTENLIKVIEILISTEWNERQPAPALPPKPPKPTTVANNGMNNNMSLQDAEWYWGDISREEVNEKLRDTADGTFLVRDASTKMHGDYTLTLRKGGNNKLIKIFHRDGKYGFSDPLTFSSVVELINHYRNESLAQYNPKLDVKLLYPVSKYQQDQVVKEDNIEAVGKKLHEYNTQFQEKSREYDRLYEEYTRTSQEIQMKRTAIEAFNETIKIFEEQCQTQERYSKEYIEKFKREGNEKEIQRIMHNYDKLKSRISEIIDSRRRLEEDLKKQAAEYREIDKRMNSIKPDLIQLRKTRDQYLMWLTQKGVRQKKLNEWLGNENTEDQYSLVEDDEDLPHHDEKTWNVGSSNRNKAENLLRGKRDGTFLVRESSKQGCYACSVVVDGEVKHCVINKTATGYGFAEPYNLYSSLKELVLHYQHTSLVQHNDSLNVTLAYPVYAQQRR
PI3Kγ, sequence (P48736 whole entry): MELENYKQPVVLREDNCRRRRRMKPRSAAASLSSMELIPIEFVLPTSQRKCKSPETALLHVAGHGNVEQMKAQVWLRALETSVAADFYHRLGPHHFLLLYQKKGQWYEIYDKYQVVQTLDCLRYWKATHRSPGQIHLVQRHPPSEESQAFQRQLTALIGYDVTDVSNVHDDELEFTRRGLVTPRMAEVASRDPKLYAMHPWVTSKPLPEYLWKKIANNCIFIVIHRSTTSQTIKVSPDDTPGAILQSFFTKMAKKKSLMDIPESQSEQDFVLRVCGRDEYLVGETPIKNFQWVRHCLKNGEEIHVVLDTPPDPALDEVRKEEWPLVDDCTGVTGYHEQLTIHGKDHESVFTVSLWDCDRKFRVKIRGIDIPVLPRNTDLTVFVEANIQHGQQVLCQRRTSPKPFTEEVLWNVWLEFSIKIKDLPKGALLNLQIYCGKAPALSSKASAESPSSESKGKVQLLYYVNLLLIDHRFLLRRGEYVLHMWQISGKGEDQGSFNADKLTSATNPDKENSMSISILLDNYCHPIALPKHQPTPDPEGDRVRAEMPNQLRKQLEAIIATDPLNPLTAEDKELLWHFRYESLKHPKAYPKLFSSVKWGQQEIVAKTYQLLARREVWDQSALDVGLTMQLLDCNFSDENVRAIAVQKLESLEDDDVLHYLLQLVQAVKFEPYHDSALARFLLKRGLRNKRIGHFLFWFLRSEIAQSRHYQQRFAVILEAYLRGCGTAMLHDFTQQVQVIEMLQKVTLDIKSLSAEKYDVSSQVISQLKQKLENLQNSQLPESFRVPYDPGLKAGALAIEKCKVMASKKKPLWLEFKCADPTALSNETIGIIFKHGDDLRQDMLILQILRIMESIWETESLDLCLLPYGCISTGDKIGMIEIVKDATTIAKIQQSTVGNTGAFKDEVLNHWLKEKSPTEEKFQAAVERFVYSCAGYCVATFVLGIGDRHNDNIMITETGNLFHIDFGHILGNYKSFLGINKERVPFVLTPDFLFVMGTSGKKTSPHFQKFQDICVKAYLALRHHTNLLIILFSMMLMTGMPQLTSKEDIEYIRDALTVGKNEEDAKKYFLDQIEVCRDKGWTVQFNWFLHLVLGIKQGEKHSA
PI3Kβ, sequence (P42338 whole entry): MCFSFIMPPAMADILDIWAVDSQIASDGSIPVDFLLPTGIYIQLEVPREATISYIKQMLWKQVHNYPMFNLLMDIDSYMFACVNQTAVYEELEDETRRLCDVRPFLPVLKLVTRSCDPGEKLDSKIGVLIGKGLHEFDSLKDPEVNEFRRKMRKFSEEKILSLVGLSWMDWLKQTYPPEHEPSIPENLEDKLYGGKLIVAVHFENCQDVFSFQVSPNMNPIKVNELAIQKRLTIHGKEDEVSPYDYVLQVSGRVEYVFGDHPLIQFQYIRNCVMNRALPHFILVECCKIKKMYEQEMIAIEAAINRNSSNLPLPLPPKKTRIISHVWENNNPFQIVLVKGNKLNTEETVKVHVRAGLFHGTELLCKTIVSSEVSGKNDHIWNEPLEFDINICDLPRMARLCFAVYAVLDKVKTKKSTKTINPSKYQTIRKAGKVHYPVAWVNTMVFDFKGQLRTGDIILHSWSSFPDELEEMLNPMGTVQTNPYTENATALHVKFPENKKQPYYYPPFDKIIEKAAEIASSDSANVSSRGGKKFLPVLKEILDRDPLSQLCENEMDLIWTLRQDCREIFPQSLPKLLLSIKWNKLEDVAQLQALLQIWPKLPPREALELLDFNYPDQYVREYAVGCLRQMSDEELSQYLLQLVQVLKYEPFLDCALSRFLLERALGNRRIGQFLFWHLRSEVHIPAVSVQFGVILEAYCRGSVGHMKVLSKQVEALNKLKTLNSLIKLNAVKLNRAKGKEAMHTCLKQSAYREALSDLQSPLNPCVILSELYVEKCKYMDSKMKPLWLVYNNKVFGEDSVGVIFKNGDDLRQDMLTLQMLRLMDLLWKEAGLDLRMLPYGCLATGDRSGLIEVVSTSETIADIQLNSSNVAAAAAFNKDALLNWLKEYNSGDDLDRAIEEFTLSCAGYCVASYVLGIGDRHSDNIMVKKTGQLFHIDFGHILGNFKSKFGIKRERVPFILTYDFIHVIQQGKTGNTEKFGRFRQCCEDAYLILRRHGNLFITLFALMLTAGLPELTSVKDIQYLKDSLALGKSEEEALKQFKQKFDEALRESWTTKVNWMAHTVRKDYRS
PI3Kβ, sequence (P27986 whole entry partner): as the sequence (P27986 whole entry partner) above
PI3Kα, sequence (P42336 whole entry): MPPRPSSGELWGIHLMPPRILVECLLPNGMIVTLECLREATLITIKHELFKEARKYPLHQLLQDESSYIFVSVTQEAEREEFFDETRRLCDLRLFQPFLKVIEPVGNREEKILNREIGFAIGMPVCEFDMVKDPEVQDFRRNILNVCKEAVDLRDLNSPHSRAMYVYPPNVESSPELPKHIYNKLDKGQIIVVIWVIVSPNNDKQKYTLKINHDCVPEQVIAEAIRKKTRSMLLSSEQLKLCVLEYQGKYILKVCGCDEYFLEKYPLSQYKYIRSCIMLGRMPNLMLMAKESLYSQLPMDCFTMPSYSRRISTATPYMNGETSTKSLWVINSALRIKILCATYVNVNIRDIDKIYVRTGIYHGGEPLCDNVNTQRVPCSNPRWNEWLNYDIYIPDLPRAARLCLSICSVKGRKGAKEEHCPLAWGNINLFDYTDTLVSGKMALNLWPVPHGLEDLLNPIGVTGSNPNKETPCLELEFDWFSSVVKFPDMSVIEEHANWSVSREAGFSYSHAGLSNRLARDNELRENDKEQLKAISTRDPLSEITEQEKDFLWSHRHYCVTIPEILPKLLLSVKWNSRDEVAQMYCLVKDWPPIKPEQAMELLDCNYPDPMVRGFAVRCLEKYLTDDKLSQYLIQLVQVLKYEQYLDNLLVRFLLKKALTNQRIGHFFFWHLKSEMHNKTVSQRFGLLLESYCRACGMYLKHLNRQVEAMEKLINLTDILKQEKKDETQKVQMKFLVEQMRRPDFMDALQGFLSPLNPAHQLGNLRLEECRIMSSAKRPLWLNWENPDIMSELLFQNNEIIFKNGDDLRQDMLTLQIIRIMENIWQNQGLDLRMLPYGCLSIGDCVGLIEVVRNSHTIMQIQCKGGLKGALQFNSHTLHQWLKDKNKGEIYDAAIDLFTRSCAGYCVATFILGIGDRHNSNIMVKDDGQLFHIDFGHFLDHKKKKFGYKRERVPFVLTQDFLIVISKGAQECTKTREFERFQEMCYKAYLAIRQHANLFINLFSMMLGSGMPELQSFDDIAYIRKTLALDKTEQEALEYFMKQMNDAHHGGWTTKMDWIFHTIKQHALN
PI3Kα, sequence (P27986 whole entry partner): as the sequence (P27986 whole entry partner) above

Row | inhibition at 1 µM [1] [%] | melting point [°C] | inhibition at 1 µM [2] [%] | inhibition at 0.1 µM [3] [%] | inhibition at 0.1 µM [4] [%] | IC50 [3] [nM] | IC50 [4] [nM] | SMILES
1 | 20 to 40 | 180 to 183 | 0 to 10 | 20 to 40 | 0 to 20 |  |  | COc1ccc(-c2nn([C@H](C)c3cc4cccc(Cl)c4c(=O)n3-c3ccccc3)c3ncnc(N)c23)cc1NS(C)(=O)=O [Example 20b, (−)—N-(5-(4-amino-1-(1-(8-chloro-1-oxo-2-phenyl-1,2-dihydroisoquinolin-3-yl)ethyl)-1H-pyrazolo[3,4-d]pyrimidin-3-yl)-2-methoxyphenyl)methanesulfonamide]
2 | 20 to 40 | 181 to 185 | 0 to 10 | 80 to 100 | 80 to 100 | 45.6 | 47.3 | C[C@H](c1cc2cccc(Cl)c2c(=O)n1-c1ccccc1)n1nc(-c2ccc(OC(F)F)c(F)c2)c2c(N)ncnc21 [Example 17b, (−)-3-(1-(4-amino-3-(4-(difluoromethoxy)-3-fluorophenyl)-1H-pyrazolo[3,4-d]pyrimidin-1-yl)ethyl)-8-chloro-2-phenylisoquinolin-1(2H)-one]
3 | 20 to 40 | 228 to 229 | 0 to 10 | 40 to 60 | 40 to 60 |  |  | CC(c1cc2cccc(F)c2c(=O)n1-c1ccccc1)n1nc(-c2ccc(O)c(F)c2)c2c(N)ncnc21 (stereo not drawn) [Example 15, 3-(1-(4-amino-3-(3-fluoro-4-hydroxyphenyl)-1H-pyrazolo[3,4-d]pyrimidin-1-yl)ethyl)-8-fluoro-2-phenylisoquinolin-1(2H)-one]
4 | 0 to 10 | 258 to 260 | 0 to 10 | 20 to 40 | 0 to 20 |  |  | C[C@H](c1cc2cccc(F)c2c(=O)n1-c1ccccc1)n1nc(-c2ccc(O)c(F)c2)c2c(N)ncnc21 [Example 15b, (−)-3-(1-(4-amino-3-(3-fluoro-4-hydroxyphenyl)-1H-pyrazolo[3,4-d]pyrimidin-1-yl)ethyl)-8-fluoro-2-phenylisoquinolin-1(2H)-one]
5 | 60 to 80 | 289 to 291 | 20 to 40 | 80 to 100 | 60 to 80 |  |  | Cc1n[nH]c2cc(-c3nn(C(C)c4cc5cccc(Cl)c5c(=O)n4-c4ccccc4)c4ncnc(N)c34)ccc12 (stereo not drawn) [Example 21, 3-(1-(4-amino-3-(3-methyl-1H-indazol-6-yl)-1H-pyrazolo[3,4-d]pyrimidin-1-yl)ethyl)-8-chloro-2-phenylisoquinolin-1(2H)-one]
6 | 60 to 80 | 212 to 214 | 0 to 10 | 40 to 60 | 40 to 60 |  |  | CC(c1nc2cccc(F)c2c(=O)n1-c1ccccc1)n1nc(-c2ccc(O)c(F)c2)c2c(N)ncnc21 (stereo not drawn) [Example 16, 2-(1-(4-amino-3-(3-fluoro-4-hydroxyphenyl)-1H-pyrazolo[3,4-d]pyrimidin-1-yl)ethyl)-5-fluoro-3-phenylquinazolin-4(3H)-one]
7 | 20 to 40 | 192 to 195 | 0 to 10 | 20 to 40 | 0 to 20 |  |  | CC(C)Oc1ccc(-c2nn([C@H](C)c3nc4ccccc4c(=O)n3-c3ccccc3)c3ncnc(N)c23)cc1F [Example 6b, (−)-2-(1-(4-amino-3-(3-fluoro-4-isopropoxyphenyl)-1H-pyrazolo[3,4-d]pyrimidin-1-yl)ethyl)-3-phenylquinazolin-4(3H)-one]
8 | 0 to 10 | 164 to 166 | 0 to 10 | 20 to 40 | 0 to 20 |  |  | CC(C)Oc1ccc(-c2nn(C(C)c3cc4cccc(Cl)c4c(=O)n3-c3ccccc3)c3ncnc(N)c23)cc1F (stereo not drawn) [Example 1, 3-(1-(4-amino-3-(3-fluoro-4-isopropoxyphenyl)-1H-pyrazolo[3,4-d]pyrimidin-1-yl)ethyl)-8-chloro-2-phenylisoquinolin-1(2H)-one]
